Assay results reported in the NIST ThermoML archive (doi:10.1021/je900777q).
Values joined by “and” are separate entries in the source; they are usually repeats but may differ in a detail not shown here. Equal entries are not always repeated.

What was measured:
[1] = Crystal; for vapor or sublimation pressure: Calculated from knudsen effusion weight loss; for Normal melting temperature: DTA
[2] = Molar enthalpy of transition or fusion; conditions: Crystal; DSC

O=C(O)c1cccc(O)c1O [2,3-dihydroxybenzoic acid]
[1]
Conditions | vapor or sublimation pressure
345.22 K | 0.000158 kPa and 0.000159 kPa and 0.000157 kPa
347.21 K | 0.000201 kPa and 0.000196 kPa and 0.000197 kPa
349.23 K | 0.00025 kPa and 0.000248 kPa and 0.000246 kPa
351.19 K | 0.000308 kPa and 0.00031 kPa
353.21 K | 0.00038 kPa and 0.000377 kPa
355.17 K | 0.000468 kPa and 0.000466 kPa
357.2 K | 0.000569 kPa and 0.000565 kPa and 0.000564 kPa
359.2 K | 0.000716 kPa and 0.000708 kPa and 0.000711 kPa
361.21 K | 0.000867 kPa and 0.000857 kPa and 0.000861 kPa
363.18 K | 0.001039 kPa and 0.001029 kPa

Conditions | Molar enthalpy of transition or fusion [kJ/mol] | Normal melting temperature [°C]
[1] | – | 203.2
[2] | 31.9 | –

O=C(O)c1ccc(O)cc1O [2,4-dihydroxybenzoic acid]
[1]
Conditions | vapor or sublimation pressure
376.22 K | 0.000198 kPa and 0.000192 kPa and 0.000195 kPa
377.32 K | 0.000224 kPa and 0.000217 kPa and 0.00022 kPa
379.13 K | 0.000269 kPa and 0.00026 kPa and 0.000264 kPa
381.15 K | 0.000315 kPa and 0.000319 kPa and 0.000332 kPa
383.13 K | 0.000399 kPa and 0.000388 kPa and 0.00039 kPa
385.12 K | 0.000501 kPa and 0.000489 kPa and 0.000493 kPa
387.17 K | 0.000613 kPa and 0.000591 kPa and 0.000593 kPa
389.35 K | 0.000762 kPa and 0.000732 kPa and 0.000741 kPa
391.3 K | 0.000916 kPa and 0.000884 kPa and 0.000893 kPa
392.11 K | 0.000988 kPa and 0.000961 kPa and 0.000955 kPa

O=C(O)c1cc(O)ccc1O [2,5-dihydroxybenzoic acid]
[1]
Conditions | vapor or sublimation pressure
372.14 K | 0.00015 kPa and 0.000146 kPa and 0.000145 kPa
374.13 K | 0.000192 kPa and 0.000182 kPa and 0.000183 kPa
376.19 K | 0.000231 kPa and 0.000221 kPa
378.15 K | 0.000287 kPa and 0.000299 kPa and 0.000285 kPa
380.3 K | 0.000373 kPa and 0.000356 kPa and 0.000364 kPa
382.22 K | 0.00045 kPa
384.7 K | 0.000572 kPa and 0.000574 kPa
386.12 K | 0.000663 kPa and 0.000649 kPa
388.92 K | 0.000905 kPa and 0.000871 kPa and 0.000866 kPa

Conditions | Molar enthalpy of transition or fusion [kJ/mol] | Normal melting temperature [°C]
[1] | – | 203.1
[2] | 20.8 | –

O=C(O)c1c(O)cccc1O [2,6-dihydroxybenzoic acid]
[1]
Conditions | vapor or sublimation pressure
347.14 K | 0.000138 kPa and 0.000131 kPa and 0.000133 kPa
349.32 K | 0.000171 kPa and 0.000173 kPa
351.02 K | 0.000204 kPa and 0.000208 kPa
353.26 K | 0.000255 kPa and 0.000249 kPa
355.35 K | 0.000323 kPa and 0.000336 kPa
357.2 K | 0.000401 kPa and 0.000391 kPa and 0.000386 kPa
359.28 K | 0.000491 kPa and 0.000477 kPa and 0.000479 kPa
361.38 K | 0.000609 kPa and 0.00059 kPa and 0.000586 kPa
363.19 K | 0.000713 kPa and 0.000692 kPa and 0.000679 kPa
365.17 K | 0.000881 kPa and 0.000845 kPa and 0.000834 kPa

O=C(O)c1ccc(O)c(O)c1 [3,4-dihydroxybenzoic acid]
[1]
Conditions | vapor or sublimation pressure
387.12 K | 8.9e-05 kPa and 8.7e-05 kPa and 8.6e-05 kPa
391.31 K | 0.000132 kPa and 0.000133 kPa
393.33 K | 0.000166 kPa and 0.000164 kPa and 0.000165 kPa
395.2 K | 0.0002 kPa and 0.000202 kPa and 0.000201 kPa
397.32 K | 0.000249 kPa and 0.000253 kPa and 0.00025 kPa
401.25 K | 0.000367 kPa and 0.000365 kPa
403.26 K | 0.000451 kPa and 0.000452 kPa and 0.00045 kPa

O=C(O)c1cc(O)cc(O)c1 [3,5-dihydroxybenzoic acid]
[1]
Conditions | vapor or sublimation pressure
407.36 K | 9.8e-05 kPa and 9.7e-05 kPa
410.25 K | 0.00013 kPa and 0.000129 kPa
413.16 K | 0.000176 kPa and 0.000179 kPa and 0.000175 kPa
416.13 K | 0.000237 kPa and 0.000234 kPa and 0.000238 kPa
419.21 K | 0.000305 kPa and 0.00031 kPa and 0.000311 kPa
422.2 K | 0.000407 kPa and 0.000409 kPa and 0.000412 kPa
425.23 K | 0.000561 kPa and 0.000563 kPa

Conditions | Molar enthalpy of transition or fusion [kJ/mol] | Normal melting temperature [°C]
[1] | – | 235.2
[2] | 38.3 | –
